How the values were obtained:
[1] = test system: NCI-H1299; assay: Antiproliferative activity against human NCI-H1299 cells assessed as inhibition of cell proliferation; type: functional, cell-based
[2] = target: Phosphoglycerate mutase 1 (Homo sapiens, UniProt P18669); assay: Inhibition of PGAM1 (unknown origin)
Sequence of Phosphoglycerate mutase 1 (P18669 whole entry): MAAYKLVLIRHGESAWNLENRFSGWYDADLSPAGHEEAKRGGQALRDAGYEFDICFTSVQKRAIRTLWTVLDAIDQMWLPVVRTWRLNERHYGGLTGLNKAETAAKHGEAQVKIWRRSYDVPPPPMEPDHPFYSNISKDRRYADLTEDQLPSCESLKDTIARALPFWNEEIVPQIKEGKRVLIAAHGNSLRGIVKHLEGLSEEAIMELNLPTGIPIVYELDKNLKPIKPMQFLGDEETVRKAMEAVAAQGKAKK

| Structure (SMILES) | EC50 [1] [µM] | IC50 [2] [µM] |
| --- | --- | --- |
| CC(C)=CCc1c(O)cc2oc3cc(O)c(O)c(CC=C(C)C)c3c(=O)c2c1O | 2.2 | 1.9 |
| O=C1c2ccccc2C(=O)c2c1cc(S(=O)(=O)Nc1ccc(C(F)(F)F)cc1)c(O)c2O | 26.2 | – |
| O=c1c2cc(O)c(O)cc2oc2cc(O)cc(OCCCCN3CCCCC3)c12 | – | > 20 |
| CCCCC=CCc1c(O)c(O)cc2oc3cc(O)cc(O)c3c(=O)c12 | 13.5 | 2.8 |
| COc1c(OCCN2CCN(C)CC2)cc2oc3cc(OCCN4CCN(C)CC4)c(CC=C(C)C)c(O)c3c(=O)c2c1CC=C(C)C | – | > 20 |
| CCNC(=O)Oc1cc2oc3cc(OC(=O)NCC)c(OC)c(CC=C(C)C)c3c(=O)c2c(O)c1CC=C(C)C | – | > 20 |
| COc1c(OC(=O)NC(C)C)cc2oc3cc(OC(=O)NC(C)C)c(CC=C(C)C)c(O)c3c(=O)c2c1CC=C(C)C | – | > 20 |
| COc1c(OCCN(C)C)cc2oc3cc(OCCN(C)C)c(CC=C(C)C)c(O)c3c(=O)c2c1CC=C(C)C | – | > 20 |
| O=C(CCCOc1cc(O)cc2oc3cc(O)c(O)cc3c(=O)c12)N1CCCCC1 | – | > 20 |
| CCCCCCCCOc1cc(O)cc2oc3cc(O)c(O)cc3c(=O)c12 | 3.4 | 2.8 |
| O=c1c2c(O)cc(O)cc2oc2cc(O)c(O)c(CCCc3ccccc3)c12 | 41.6 | 1.5 |
| COc1c(OCCO)cc2oc3cc(OCCO)c(CC=C(C)C)c(O)c3c(=O)c2c1CC=C(C)C | – | > 20 |
| COc1cc(O)c2c(=O)c3c(CCCc4ccccc4)c(O)c(OC)cc3oc2c1 | – | > 20 |
| CCCCOc1cc(O)cc2oc3cc(O)c(O)cc3c(=O)c12 | 60 | 12.8 |
| CCCc1c(O)c(O)cc2oc3cc(O)cc(O)c3c(=O)c12 | – | 20 |
| O=c1c2cc(O)c(O)cc2oc2cc(O)cc(OCCCCN3CCc4ccccc43)c12 | 28.1 | 5.7 |
| COc1c(OCC(=O)N(C)C)cc2oc3cc(OCC(=O)N(C)C)c(CC=C(C)C)c(O)c3c(=O)c2c1CC=C(C)C | – | > 20 |
| CC(C)=CCc1c(O)c(O)cc2oc3cc(O)cc(O)c3c(=O)c12 | 47.7 | 3.4 |
| COc1c(O)cc2oc3cc(O)c(CC=C(C)C)c(O)c3c(=O)c2c1CC=C(C)C [MANGOSTIN] | – | 7.2 |
| O=c1c2ccccc2oc2ccccc12 [XANTHONE] | – | 0.5 |

— ChEMBL document CHEMBL4706677, “Design, synthesis, and biological evaluation of 1,3,6,7-tetrahydroxyxanthone derivatives as phosphoglycerate mutase 1 inhibitors” (Bioorg Med Chem Lett, 2021)
